Measurements taken from patent US4760201A (Exxon Research & Engineering Co., priority 1986, dated 1988).
Values joined by “and” are separate entries in the source; they are usually repeats but may differ in a detail not shown here. Identical values can stand only once. Like-named read-outs stand apart in the source and are kept apart here. Blank lines part the entries; values can stand above or below the compound they belong to.

Experiments:
[1] = Protocol: The liquids thus passed to the extraction unit were preheated each to a temperature of 60° C. The reciprocating plate column was provided with a hot water heating jacket maintained at 60° C. […] The liquids thereby accumulated were each analyzed by gas chromatography and nuclear magnetic resonance spectroscopy (NMR) for component identification.
[2] = Partitioning of alcohol into neodecanoic acid from sulfuric acid/alcohol feedstreams (Examples 14-21); details: AS 60%, 60° C.
[3] = Comparative runs: partitioning of SBOH and water into neodecanoic acid from aqueous sec-butanol free of sulfuric acid
Method: (§1) In a series of runs, separate portions of the acid/alcohol feedstreams were contacted with the indicated amount of octanoic acid for extraction of sec-butyl alcohol (SBA) therefrom using the indicated contacting temperatures, employing a 60 ml. separatory funnel, with agitation, and employing 3 hours of setting time. The weight percent sec-butyl alcohol in the light phase (i.e., the upper layer comprising the octanoic acid layer) was then analyzed.

[4] = Batch extraction of sec-butyl alcohol (SBA) from acid/alcohol feedstream by aliphatic acids; SBA in light phase; format: physicochemical; details: AS 56.7%, ES 0.5
Text: Thereafter, the thus-formed acid/alcohol […] contacted with the selected amount of a carboxylic acid solvent of this invention, and the results thereby obtained are reported in the associated tables below.

[5] = Effect of solvent/feed ratio on selectivity of extraction (H2O/SBA in upper layer); details: 25° C., AS 56.7%, ES 0.5
Method: as §1

Overall Partition Coefficients, Wt. Fract. (concentration in light phase / in heavy phase) ([1]; Table 1, residence time 3.52 hours, solvent-to-feed 2.04:1, E.S. 1, A.S. 55%, 60° C.): 1.26
Overall Partition Coefficients, Wt. Fract. (concentration in light phase / in heavy phase) ([1]; Table 2, residence time 3.62, solvent-to-feed 2.098:1, E.S. 1, A.S. 55%, 60° C.): 0.83
Overall Partition Coefficients, Wt. Fract. (concentration in light phase / in heavy phase) ([1]; Table 3, residence time 3.66 hours, solvent-to-feed 2.043:1, E.S. 1, A.S. 55%, 60° C.): 1.15
Overall Partition Coefficients, Wt. Fract. (concentration in light phase / in heavy phase) ([1]; Table 4, residence time 3.66 hrs, solvent-to-feed 2.11:1, solvent feed temp. 30° C., E.S. 1, A.S. 55%, 60° C.): 4.51
Overall Partition Coefficients, Wt. Fract. (concentration in light phase / in heavy phase) ([1]; Table 5, residence time 3.37 hrs, solvent-to-feed 1.23:1, E.S. 1, A.S. 55%, 60° C.): .627
Overall Partition Coefficients, Wt. Fract. (concentration in light phase / in heavy phase) ([1]; Table 6, residence time 3.60 hrs, solvent-to-feed 2.06:1, E.S. 1, A.S. 60%, 60° C.): 0.340
Overall Partition Coefficients, Wt. Fract. (concentration in light phase / in heavy phase) ([1]; Table 7, residence time 3.77 hrs, solvent-to-feed 1.38:1, E.S. 1, A.S. 60 wt. %, 60° C.): 0.267
Overall Partition Coeff. SBOH ([2]; Example 14, ES 0.2, NDA/SBOH 15.6): 0.3
Overall Partition Coeff. SBOH ([2]; Example 15, ES 0.2, NDA/SBOH 3.9): 0.35
Overall Partition Coeff. SBOH ([2]; Example 16, ES 0.2, NDA/SBOH 7.9): 0.33
Overall Partition Coeff. SBOH ([2]; Example 17, ES 0.2, NDA/SBOH 23.2): 0.31
Overall Partition Coeff. SBOH ([2]; Example 18, ES 0.2, NDA/SBOH 4.7): 1.35
Overall Partition Coeff. SBOH ([2]; Example 19, ES 1.0, NDA/SBOH 1.3): 0.25
Overall Partition Coeff. SBOH ([2]; Example 20, ES 1.0, NDA/SBOH 2.6): 0.24
Overall Partition Coeff. SBOH ([2]; Example 21, ES 1.0, NDA/SBOH 7.9): 0.34
Overall Partition Coeff. SBOH ([3]; Comparative Example I, 25° C., start SBOH 47.8 wt %): 4.1
Overall Partition Coeff. SBOH ([3]; Comparative Example II, 25° C., start SBOH 7.3 wt %): 2.2
Overall Partition Coeff. SBOH ([3]; Comparative Example III, 25° C., start SBOH 63.9 wt %): 4.0
Overall Partition Coeff. SBOH ([3]; Comparative Example IV, 25° C., start SBOH 13.9 wt %): 2.2
Overall Partition Coeff. SBOH ([3]; Comparative Example IX, 60° C., start SBOH 28.3 wt %): 6.0
Overall Partition Coeff. SBOH ([3]; Comparative Example V, 60° C., start SBOH 45.3 wt %): 6.0
Overall Partition Coeff. SBOH ([3]; Comparative Example VI, 60° C., start SBOH 7.4 wt %): 4.4
Overall Partition Coeff. SBOH ([3]; Comparative Example VII, 60° C., start SBOH 61.7 wt %): 6.4
Overall Partition Coeff. SBOH ([3]; Comparative Example VIII, 60° C., start SBOH 13.5 wt %): 4.5
Compound: CCC(C)O (stereo not drawn) [SBOH, sec-butyl alcohol]

Overall Partition Coefficients, Wt. Fract. (concentration in light phase / in heavy phase) [1]: 0.012
Compound: O [Water, water]

SBA in Light Phase ([4]; Table 9, 25 °C, vol:vol 1.0:1): 5.04 wt. %
SBA in Light Phase ([4]; Table 9, 60 °C, vol:vol 1.0:1): 7.82 wt. %
selectivity of extraction [5]: high selectivity for alcohol extraction
wt:wt. ratio H2O/SBA In Upper Layer ([5]; solvent/feed 0.4 (v/v)): 0.099 wt:wt
wt:wt. ratio H2O/SBA In Upper Layer ([5]; solvent/feed 1.0 (v/v)): 0.054 wt:wt
wt:wt. ratio H2O/SBA In Upper Layer ([5]; solvent/feed 1.5 (v/v)): 0.045 wt:wt
wt:wt. ratio H2O/SBA In Upper Layer ([5]; solvent/feed 2.0 (v/v)): 0.067 wt:wt
Compound: CC(C)(C)CCC(=O)O [neoheptanoic acid]

SBA in Light Phase ([4]; Run 8-1, 60 °C, v:v solvent:feed 1.0): 9.91 wt. %
SBA in Light Phase ([4]; Run 8-2, 60 °C, v:v solvent:feed 2.0): 7.20 wt. %
SBA in Light Phase ([4]; Run 8-3, 25 °C, v:v solvent:feed 0.2): 7.38 wt. %
SBA in Light Phase ([4]; Run 8-4, 25 °C, v:v solvent:feed 0.4): 7.57 wt. %
SBA in Light Phase ([4]; Run 8-5, 25 °C, v:v solvent:feed 1.0): 6.15 wt. %
SBA in Light Phase ([4]; Run 8-6, 25 °C, v:v solvent:feed 1.5): 5.37 wt. %
SBA in Light Phase ([4]; Run 8-7, 25 °C, v:v solvent:feed 2.0): 4.54 wt. %
SBA in Light Phase ([4]; Table 9, 25 °C, vol:vol 1.0:1): 6.15 wt. %
SBA in Light Phase ([4]; Table 9, 60 °C, vol:vol 1.0:1): 9.91 wt. %
wt:wt. ratio H2O/SBA In Upper Layer ([5]; solvent/feed 0.2 (v/v)): 0.066 wt:wt and 0.079 wt:wt
wt:wt. ratio H2O/SBA In Upper Layer ([5]; solvent/feed 0.4 (v/v)): 0.055 wt:wt
wt:wt. ratio H2O/SBA In Upper Layer ([5]; solvent/feed 1.0 (v/v)): 0.067 wt:wt
wt:wt. ratio H2O/SBA In Upper Layer ([5]; solvent/feed 2.0 (v/v)): 0.101 wt:wt
Compound: CCCCCCCC(=O)O [octanoic acid]
selectivity of extraction [5]: increasing amounts of water being removed

Overall Partition Coefficients, Wt. Fract. (concentration in light phase / in heavy phase) [1]: > 2000
Compound: butene

Overall Partition Coefficients, Wt. Fract. (concentration in light phase / in heavy phase) [1]: 81.2
Compound: CCC(C)OC(C)CC (stereo not drawn) [SBE, secondary butyl ether]
